The values below are quoted from earlier work in US4975422A, “Angiogenesis inhibitor” (Kureha Kagaku Kogyo Kabushiki Kaisha, priority 1988, dated 1990).

For the data set the following is noted: oral; species not stated.

Turning to `COc1ccc2c(c1)c(CC(=O)O)c(C)n2C(=O)c1ccc(Cl)cc1` [indomethacin], the LD50 is reported as 50 mg/kg.

The LD50 is the dose expected to kill half of the subjects tested.
